System: 494315-158-R-J1-PDC complex spheroid growth, percent test/control
Experiment: Anticancer human tumor 494315-158-R-J1-PDC patient-derived soft tissue sarcoma cell line growth inhibition [Asc]
Details: for IC50: curve of first compound; for viability, T/C: stronger effect = lower value; active = viability on the fitted dose curve at most 10% of control; inactive = the rest
Outline: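 Stromal components (HUVEC and hMSC) are co-assembled with the cancer cells into multicellular spheroids. Drugs are then added singly or paired, at concentrations falling by half-log increments from a clinically achievable maximum, capped at 10 microM without known Cmax.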

[1] = second compound 0.1 µM, first compound 0.0316 µM
[2] = second compound 0.1 µM, first compound 0.1 µM
[3] = second compound 0.1 µM, first compound 0.316 µM
[4] = second compound 0.1 µM, first compound 1 µM
[5] = second compound 0.316 µM, first compound 0.0316 µM
[6] = second compound 0.316 µM, first compound 0.1 µM
[7] = second compound 0.316 µM, first compound 0.316 µM
[8] = second compound 0.316 µM, first compound 1 µM
[9] = second compound 1 µM, first compound 0.0316 µM
[10] = second compound 1 µM, first compound 0.1 µM
[11] = second compound 1 µM, first compound 0.316 µM
[12] = second compound 1 µM, first compound 1 µM
[13] = second compound 3.16 µM, first compound 0.0316 µM
[14] = second compound 3.16 µM, first compound 0.1 µM
[15] = second compound 3.16 µM, first compound 0.316 µM
[16] = second compound 3.16 µM, first compound 1 µM
[17] = second compound 10 µM, first compound 0.0316 µM
[18] = second compound 10 µM, first compound 0.1 µM
[19] = second compound 10 µM, first compound 0.316 µM
[20] = second compound 10 µM, first compound 1 µM
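Note: compound exposure lasted seven days after spheroids formed for three days.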

C#Cc1c(F)ccc2cc(O)cc(-c3ncc4c(N5CC6CCC(C5)N6)nc(OCC56CCCN5CC(F)C6)nc4c3F)c12 (stereo not given) + Cc1c(S(C)(=O)=O)c(-c2cc(F)cc(N3CCN(c4ccc(NS(=O)(=O)c5ccc(NC(CCN6CCC(C(=O)OCCCP(=O)(O)O)CC6)CSc6ccccc6)c(S(=O)(=O)C(F)(F)F)c5)cc4)CC3)c2)c(-c2ccc(Cl)cc2)n1C(C)C
> 10 µM: IC50 (second compound 0.1 µM) | IC50 (second compound 0.316 µM) | IC50 (second compound 1 µM) | IC50 (second compound 10 µM)
inactive: viability, T/C [1] 82.8% | viability, T/C [2] 89.9% | viability, T/C [3] 77.2% | viability, T/C [4] 88.6% | viability, T/C (second compound 0.1 µM, first compound 3.16 µM) 80.4% | viability, T/C (second compound 0.1 µM, first compound 10 µM) 59.8% | viability, T/C [5] 84.9% | viability, T/C [6] 74.8% | viability, T/C [7] 74.8% | viability, T/C [8] 72.1% | viability, T/C (second compound 0.316 µM, first compound 3.16 µM) 71.9% | viability, T/C (second compound 0.316 µM, first compound 10 µM) 50.7% | viability, T/C [9] 61.6% | viability, T/C [10] 78.1% | viability, T/C [11] 72.8% | viability, T/C [12] 69.2% | viability, T/C (second compound 1 µM, first compound 3.16 µM) 71.1% | viability, T/C (second compound 1 µM, first compound 10 µM) 51.4% | viability, T/C [13] 51.9% | viability, T/C [14] 57.5% | viability, T/C [15] 65.7% | viability, T/C [16] 58.9% | viability, T/C (second compound 3.16 µM, first compound 3.16 µM) 51.5% | viability, T/C (second compound 3.16 µM, first compound 10 µM) 37.6% | viability, T/C [17] 74.8% | viability, T/C [18] 78.8% | viability, T/C [19] 88.2% | viability, T/C [20] 81.2% | viability, T/C (second compound 10 µM, first compound 3.16 µM) 81.3% | viability, T/C (second compound 10 µM, first compound 10 µM) 55.5%
4.04 µM: IC50 (second compound 3.16 µM)

CNC(C)C(=O)NC1CN(S(=O)(=O)c2cccc(S(=O)(=O)N3CCC4CCC(C(=O)NC(c5ccccc5)c5ccccc5)N4C(=O)C(NC(=O)C(C)NC)C3)c2)CCC2CCC(C(=O)NC(c3ccccc3)c3ccccc3)N2C1=O (stereo not given) + Cc1c(S(C)(=O)=O)c(-c2cc(F)cc(N3CCN(c4ccc(NS(=O)(=O)c5ccc(NC(CCN6CCC(C(=O)OCCCP(=O)(O)O)CC6)CSc6ccccc6)c(S(=O)(=O)C(F)(F)F)c5)cc4)CC3)c2)c(-c2ccc(Cl)cc2)n1C(C)C
0.00957 µM: IC50 (second compound 1 µM)
0.0222 µM: IC50 (second compound 10 µM)
0.0188 µM: IC50 (second compound 0.1 µM)
inactive: viability, T/C (second compound 0.1 µM, first compound 0.00316 µM) 66.2% | viability, T/C (second compound 0.1 µM, first compound 0.01 µM) 57.6% | viability, T/C [1] 42.9% | viability, T/C [2] 36.8% | viability, T/C [3] 29.5% | viability, T/C [4] 26.9% | viability, T/C (second compound 0.316 µM, first compound 0.00316 µM) 46.4% | viability, T/C (second compound 0.316 µM, first compound 0.01 µM) 47.5% | viability, T/C [5] 39.1% | viability, T/C [6] 39.3% | viability, T/C [7] 26% | viability, T/C [8] 30% | viability, T/C (second compound 1 µM, first compound 0.00316 µM) 68.2% | viability, T/C (second compound 1 µM, first compound 0.01 µM) 43.2% | viability, T/C [9] 42.8% | viability, T/C [10] 34.7% | viability, T/C [11] 26.4% | viability, T/C [12] 23.9% | viability, T/C (second compound 3.16 µM, first compound 0.00316 µM) 49% | viability, T/C (second compound 3.16 µM, first compound 0.01 µM) 39.7% | viability, T/C [13] 32.6% | viability, T/C [14] 21.8% | viability, T/C [15] 36.7% | viability, T/C [16] 19.8% | viability, T/C (second compound 10 µM, first compound 0.00316 µM) 60.3% | viability, T/C (second compound 10 µM, first compound 0.01 µM) 60.5% | viability, T/C [17] 44.5% | viability, T/C [18] 36.4% | viability, T/C [19] 29.3% | viability, T/C [20] 29.4%
< 0.00316 µM: IC50 (second compound 0.316 µM) | IC50 (second compound 3.16 µM)

Cc1nc(N2CCC3(CC2)COC(C)C3N)c(CO)nc1Sc1ccnc(N)c1Cl (stereo not given) + Cc1c(S(C)(=O)=O)c(-c2cc(F)cc(N3CCN(c4ccc(NS(=O)(=O)c5ccc(NC(CCN6CCC(C(=O)OCCCP(=O)(O)O)CC6)CSc6ccccc6)c(S(=O)(=O)C(F)(F)F)c5)cc4)CC3)c2)c(-c2ccc(Cl)cc2)n1C(C)C
0.194 µM: IC50 (second compound 10 µM)
inactive: viability, T/C (second compound 0.1 µM, first compound 0.00949 µM) 71.1% | viability, T/C (second compound 0.1 µM, first compound 0.03 µM) 80.7% | viability, T/C (second compound 0.1 µM, first compound 0.0949 µM) 69.1% | viability, T/C (second compound 0.1 µM, first compound 0.3 µM) 61.6% | viability, T/C (second compound 0.1 µM, first compound 0.949 µM) 40.5% | viability, T/C (second compound 0.1 µM, first compound 3 µM) 23.5% | viability, T/C (second compound 0.316 µM, first compound 0.00949 µM) 68.3% | viability, T/C (second compound 0.316 µM, first compound 0.03 µM) 70% | viability, T/C (second compound 0.316 µM, first compound 0.0949 µM) 51.8% | viability, T/C (second compound 0.316 µM, first compound 0.3 µM) 55.2% | viability, T/C (second compound 0.316 µM, first compound 0.949 µM) 30.5% | viability, T/C (second compound 0.316 µM, first compound 3 µM) 17.1% | viability, T/C (second compound 1 µM, first compound 0.00949 µM) 71.4% | viability, T/C (second compound 1 µM, first compound 0.03 µM) 71% | viability, T/C (second compound 1 µM, first compound 0.0949 µM) 49.6% | viability, T/C (second compound 1 µM, first compound 0.3 µM) 34.6% | viability, T/C (second compound 1 µM, first compound 0.949 µM) 20.7% | viability, T/C (second compound 1 µM, first compound 3 µM) 21% | viability, T/C (second compound 3.16 µM, first compound 0.00949 µM) 48.8% | viability, T/C (second compound 3.16 µM, first compound 0.03 µM) 41.2% | viability, T/C (second compound 3.16 µM, first compound 0.0949 µM) 43.6% | viability, T/C (second compound 3.16 µM, first compound 0.3 µM) 26.4% | viability, T/C (second compound 3.16 µM, first compound 0.949 µM) 22.6% | viability, T/C (second compound 3.16 µM, first compound 3 µM) 10.3% | viability, T/C (second compound 10 µM, first compound 0.00949 µM) 76.8% | viability, T/C (second compound 10 µM, first compound 0.03 µM) 69.6% | viability, T/C (second compound 10 µM, first compound 0.0949 µM) 67.6% | viability, T/C (second compound 10 µM, first compound 0.3 µM) 38.5% | viability, T/C (second compound 10 µM, first compound 0.949 µM) 22.1% | viability, T/C (second compound 10 µM, first compound 3 µM) 8.76%
0.26 µM: IC50 (second compound 0.316 µM)
0.558 µM: IC50 (second compound 0.1 µM)
0.107 µM: IC50 (second compound 1 µM)
< 0.00949 µM: IC50 (second compound 3.16 µM)

— PubChem BioAssay AID1963420 (Molecular Pharmacology Branch, DTP, NCI, 2024)
